Laboratory results reported in publication PMC9516332 (Frontiers in Oncology, 2022).

Tests used:
[1] = system: ERBB2-amplified cell lines; experiment: Cell viability assay, ERBB2-amplified versus non-amplified cell lines; format: cell-based; details: MANOVA
Description: The effect of compounds on cell viability was determined by measuring intracellular ATP content as an indirect readout of cell number ([15]). […] A vehicle-treated control (0.4% (v/v) DMSO) was included in quadruplicate on the same assay plate to determine maximum cell growth. The final DMSO concentration was 0.4% (v/v) in all wells. After incubation for another 72 hours, ATP content in each well was measured as described previously. […] When the cell doubling deviated > 2-fold from the historic doubling as determined in multiple independent experiments, the experiment was invalidated and repeated. […] IC50 values of kinase inhibitors were calculated by fitting a 4-parameter logistic curve to the percentage viability values using IDBS XLfit5 (IDBS, Guildford, United Kingdom). […] . For some compounds, biphasic curves were measured in one or more cell lines, indicating a dual mechanism of action in these cell lines ([29]). […] For all bioinformatic analyses, ^10log(IC50 [nmol/L]) values were used.
Cell lines were classified as having an alteration in a specific cancer gene if at least one allele was altered by point mutation, insertion, deletion, fusion, or amplification. The mutation, fusion, and amplification status of the cell lines was retrieved from the COSMIC cell lines project (version 80) ([23]), Cancer Cell Line Encyclopedia (CCLE), DepMap (version 22Q1) ([16]), and Cellosaurus ([30]) databases. In order to ensure that genomic alterations included in subsequent analyses were relevant to cancer growth and drug response, mutations were only included when they were either reported as a hotspot mutation in Cancer Hotspots ([31]), described as oncogenic and gain-of-function in OncoKB or JAX CKB, or described as pathogenic in the literature. […] J82 was therefore annotated as FGFR3 wild-type.
All statistical analyses were performed in R (version 4.1.2), unless otherwise indicated. A two-sided Mann-Whitney test was performed for two-group comparisons. […] . Multivariate analysis of variance (MANOVA) was performed for multi-group comparison.

[2] = molecular target: panel of 255 wild-type kinases (Homo sapiens, UniProt P14616); details: kinase IRR; 1 µmol/L single concentration; ref DOI: 10.1158/1535-7163.MCT-18-0877; cited from earlier work
[3] = molecular target: panel of 255 wild-type kinases (Homo sapiens, UniProt Q9HBH9); details: MNK2; 1 µmol/L single concentration; ref DOI: 10.1158/1535-7163.MCT-18-0877; cited from earlier work
[4] = molecular target: panel of 255 wild-type kinases (Homo sapiens, UniProt P27448); details: MARK3; 1 µmol/L single concentration; ref DOI: 10.1158/1535-7163.MCT-18-0877; cited from earlier work
[5] = molecular target: panel of 255 wild-type kinases (Homo sapiens, UniProt P78368); details: kinase CK1γ2; 1 µmol/L single concentration; ref DOI: 10.1158/1535-7163.MCT-18-0877; cited from earlier work
[6] = molecular target: T1, panel of 255 wild-type kinases (Homo sapiens, UniProt Q16566); details: CaMK4 kinase assay; 1 µmol/L single concentration; ref DOI: 10.1158/1535-7163.MCT-18-0877; cited from earlier work
T1 sequence (Q16566 1-473): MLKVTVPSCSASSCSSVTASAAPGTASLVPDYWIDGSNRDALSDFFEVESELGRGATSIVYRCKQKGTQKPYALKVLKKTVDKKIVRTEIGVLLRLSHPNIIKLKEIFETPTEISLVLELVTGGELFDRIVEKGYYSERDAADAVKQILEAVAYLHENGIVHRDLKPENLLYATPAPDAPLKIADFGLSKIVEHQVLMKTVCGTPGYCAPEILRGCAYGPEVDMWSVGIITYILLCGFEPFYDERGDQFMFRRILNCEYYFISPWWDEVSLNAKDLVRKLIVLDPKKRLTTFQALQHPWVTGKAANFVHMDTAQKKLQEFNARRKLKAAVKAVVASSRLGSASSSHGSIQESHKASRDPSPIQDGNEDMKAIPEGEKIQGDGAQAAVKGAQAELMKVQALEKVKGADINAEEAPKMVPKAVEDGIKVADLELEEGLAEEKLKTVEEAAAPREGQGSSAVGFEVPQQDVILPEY

EGFR-mutant cell lines = experiment: Cell viability assay, EGFR-mutant versus EGFR wild-type cell lines; format: cell-based; details: on average; MANOVA
FGFR-altered cell lines = experiment: Cell viability assay, FGFR-altered versus FGFR wild-type cell lines; format: cell-based; details: MANOVA
FGFR3 = molecular target: T2, FGFR3 (Homo sapiens, UniProt P22607); experiment: Biochemical kinase assay (MSA), IC50
T2 construct: purchased Carna Biosciences (only by web pointer)

[7] = system: RET-altered cell lines (LC-2/ad, TT); experiment: Cell viability assay, RET-altered versus RET wild-type cell lines; format: cell-based; details: for lower IC50 in RET-altered versus wild-type cell lines: MANOVA
FGFR4 = molecular target: T3, FGFR4 (Homo sapiens, UniProt P22455); experiment: Biochemical kinase assay (MSA), IC50
T3 construct: purchased Carna Biosciences (only by web pointer)

Compound	preferential targeting of ERBB2-amplified versus non-amplified cell lines [1] [fold]	%-inhibition at 1 µmol/L, IRR [2] [%]	%-inhibition, MNK2 [3] [%]	%-inhibition, MARK3 [4] [%]	%-inhibition at 1 µmol/L, CK1γ2 [5] [%]	%-inhibition CaMK4 [6] [%]	lower IC50 (higher potency) in EGFR-mutant compared to EGFR wild-type cell lines (EGFR-mutant cell lines) [fold]	activity in FGFR-altered versus wild-type cell lines (FGFR-altered cell lines)	IC50 (FGFR3) [µM]	lower IC50 in RET-altered versus wild-type cell lines [7] [fold]	IC50 (FGFR4) [µM]	potency in the RET-altered cell lines compared to pralsetinib ([7]; cell viability)
C=CC(=O)N1CCC[C@@H](n2nc(-c3ccc(Oc4ccccc4)cc3)c3c(N)ncnc32)C1 [ibrutinib]	254	12	20	-6	1	3	28	–	–	–	–	–
CO[C@]1(C(=O)N[C@@H](C)c2ccc(-n3cc(F)cn3)nc2)CC[C@H](c2nc(C)cc(Nc3cc(C)[nH]n3)n2)CC1 [pralsetinib]	–	–	–	–	–	–	–	around ten times more active	0.05	76	0.183	–
COc1ccc(CN2C3CC2CN(c2ccc(-c4cc(OCC(C)(C)O)cn5ncc(C#N)c45)cn2)C3)cn1 [selpercatinib]	–	–	–	–	–	–	–	around ten times more active	0.05	232	0.26	three-fold more potent
